Common to all, as to type: in vivo
Test [1] concerns Setaria viridis. Put plainly: Herbicidal effect pre-emergence. The settings on record: 320 g/ha, visual grading after ca. 3 weeks vs untreated controls. An excerpt: (§1) Herbicidal activities of the compounds of the formulae (G1) or (G2) according to the invention were investigated against the following harmful plants: • ALOMY=Alopecurus myosuroides • ECHCG=Echinochloa crus-galli • SETVI=Setaria viridis • ABUTH=Abutilon theophrasti • AMARE=Amaranthus retroflexus • PHBPU=Pharbitis purpurea • POLCO=Polygonum convolvulus (=Fallopia convolvulus) • STEME=Stellaria media • VIOTR=Viola tricolor
(§2) Seeds of mono- and dicotyledonous weed plants and crop plants are sown in wood-fiber pots in sandy loam and covered with soil. The compounds according to the invention, formulated in the form of wettable powders (WP) or as emulsifiable concentrates (EC), are then applied to the surface of the covering soil as aqueous suspension or emulsion, with the addition of 0.5% of an additive, at an application rate of 600 l of water/ha (converted).
(§3) Following treatment, the pots are placed in a greenhouse and kept under optimum growth conditions for the test plants. The visual grading of the damage to the test plants is carried out after ca. 3 weeks in comparison to untreated controls (herbicidal effect in percent (%): 100% effect=plants have died off, 0% effect=as control plants).

For test [2], the system named is Amaranthus retroflexus. The test can be described thus: Herbicidal effect pre-emergence. As to conditions: 320 g/ha, visual grading after ca. 3 weeks vs untreated controls.
Text: as §1, §2, §3

Test [3] has as its system Viola tricolor. Put plainly: Herbicidal effect pre-emergence. As to conditions: 320 g/ha, visual grading after ca. 3 weeks vs untreated controls.
Text: as §1, §2, §3

Test [4] concerns Setaria viridis. Put plainly: Herbicidal effect post-emergence. As to conditions: 320 g/ha, visual grading after ca. 3 weeks (Table 9).
Text: as §1
(§4) Seeds of mono- and dicotyledonous weed plants and crop plants are sown in wood-fiber pots in sandy loam, covered with soil and grown in a greenhouse under controlled growth conditions. 2 to 3 weeks after sowing, the test plants are sprayed in the single-leaf stage. The compounds according to the invention, formulated in form of wettable powders (WP) or as emulsifiable concentrates (EC), are then sprayed onto the green plant parts as aqueous suspension or emulsion, with the addition of 0.5% of an additive, at an application rate of 600 l of water/ha (converted). After the test plants had been in the greenhouse for ca. 3 weeks under optimum growth conditions, the effect of the preparations is assessed visually in comparison with untreated controls (herbicidal effect in percent (%): 100% effect=plants have died off, 0% effect=as control plants).

For test [5], the system named is Amaranthus retroflexus. The test can be described thus: Herbicidal effect post-emergence. The settings on record: 320 g/ha, visual grading after ca. 3 weeks (Table 9).
Text: as §1, §4

Test [6] relates to Viola tricolor. The test can be described thus: Herbicidal effect post-emergence. As to conditions: 320 g/ha, visual grading after ca. 3 weeks (Table 9).
Text: as §1, §4

Each structure is given as a SMILES string.

Regarding `Nc1nsc2c(=O)n(CC3CCCCC3Cl)cc(Cl)c12` (racemic) [Example I-155], the “herbicidal effect SETVI” value in test [1] turned out to be 100%. For the same compound, in test [2], the “herbicidal effect AMARE” value is on record as 80%. For the same compound, in test [3], the “herbicidal effect VIOTR” value stood at 100%.
In the case of `O=C(Nc1nsc2c(=O)n(CC3CCCCC3Cl)cc(Cl)c12)C(F)F` (racemic) [Example I-159], the “herbicidal effect SETVI” value in test [1] is 100%. In addition, in test [2], the “herbicidal effect AMARE” value came out at 100%. In test [3], the “herbicidal effect VIOTR” value is recorded as 100%.
Consider `CCC(=O)Nc1nsc2c(=O)n(CC3CCCCC3Cl)cc(Cl)c12` (racemic) [Example I-173], for which, in test [1], the “herbicidal effect SETVI” value worked out at 100%. For the same compound, the “herbicidal effect AMARE” value in test [2] worked out at 90%. Also, in test [3], the “herbicidal effect VIOTR” value was found to be 100%.
`CCc1cc2c(N)nsc2c(=O)n1CC1CCCCC1` [Example I-020]: the “herbicidal effect SETVI” value in test [4] worked out at 100%. In addition, in test [5], the “herbicidal effect AMARE” value is 100%. Also, in test [6], the “herbicidal effect VIOTR” value was 100%.
Consider `O=C(Nc1nsc2c(=O)n(CC3CCCCC3)c(C3CC3)cc12)C(F)(F)C(F)(F)F` [Example I-022], for which the “herbicidal effect SETVI” value in test [1] is reported as 100%. In test [2], the “herbicidal effect AMARE” value is reported as 100%. Moreover, in test [3], the “herbicidal effect VIOTR” value came out at 100%.
Turning to `CC(=O)OCc1cc2c(N)nsc2c(=O)n1CC1CCCCC1` [Example I-027], the “herbicidal effect SETVI” value in test [1] was 90%. For the same compound, the “herbicidal effect AMARE” value in test [2] was found to be 100%. Moreover, the “herbicidal effect VIOTR” value in test [3] was 90%.
In the case of `CCCc1cc2c(NC(=O)C(F)(F)C(F)(F)F)nsc2c(=O)n1CC1CCCCC1` [Example I-032], in test [1], the “herbicidal effect SETVI” value is recorded as 100%. Besides, the “herbicidal effect AMARE” value in test [2] stood at 80%. Further, the “herbicidal effect VIOTR” value in test [3] came to 80%.
For the compound `CCC(=O)Nc1nsc2c(=O)n(CC3CCCCC3)c(COC)cc12` [Example I-033], in test [1], the “herbicidal effect SETVI” value is listed as 100%. Further, the “herbicidal effect AMARE” value in test [2] came out at 100%. Also, in test [3], the “herbicidal effect VIOTR” value is given as 100%.
Regarding `COCc1cc2c(NC(=O)C(F)(F)C(F)(F)F)nsc2c(=O)n1CC1CCCCC1` [Example I-034], the “herbicidal effect SETVI” value in test [1] was 100%. The “herbicidal effect AMARE” value in test [2] was 100%. Further, in test [3], the “herbicidal effect VIOTR” value is 100%.
`CC(=O)OCc1cc2c(NC(=O)C(F)(F)C(F)(F)F)nsc2c(=O)n1CC1CCCCC1` [Example I-035]: the “herbicidal effect SETVI” value in test [1] is recorded as 100%. In addition, in test [2], the “herbicidal effect AMARE” value worked out at 100%. For the same compound, the “herbicidal effect VIOTR” value in test [3] amounted to 80%.
Consider `CCC(=O)OCc1cc2c(N)nsc2c(=O)n1CC1CCCCC1` [Example I-046], for which, in test [1], the “herbicidal effect SETVI” value is listed as 100%. For the same compound, the “herbicidal effect AMARE” value in test [2] was 100%. Besides, the “herbicidal effect VIOTR” value in test [3] is 90%.
For `C=Cc1cc2c(N)nsc2c(=O)n1CC1CCCCC1` [Example I-051], the “herbicidal effect SETVI” value in test [1] is reported as 90%. In test [2], the “herbicidal effect AMARE” value is on record as 90%. Besides, the “herbicidal effect VIOTR” value in test [3] was determined as 100%.
As for `CC(O)c1cc2c(N)nsc2c(=O)n1CC1CCCCC1` (stereo not drawn) [Example I-072], in test [4], the “herbicidal effect SETVI” value is reported as 80%. Moreover, in test [5], the “herbicidal effect AMARE” value is on record as 100%. In addition, the “herbicidal effect VIOTR” value in test [6] worked out at 100%.
For the compound `COC(C)(C)C#Cc1cn(CC2CCCCC2)c(=O)c2snc(N)c12` [Example I-105], the “herbicidal effect SETVI” value in test [1] was found to be 100%. Further, the “herbicidal effect AMARE” value in test [2] was 100%. The “herbicidal effect VIOTR” value in test [3] came out at 100%.
As for `CCc1cn(CC2CCCCC2)c(=O)c2snc(NC(=O)C(F)(F)C(F)(F)F)c12` [Example I-107], the “herbicidal effect SETVI” value in test [1] turned out to be 80%. Besides, the “herbicidal effect AMARE” value in test [2] stood at 100%. The “herbicidal effect VIOTR” value in test [3] stood at 100%.
In the case of `COC/C=C/c1cn(CC2CCCCC2)c(=O)c2snc(N)c12` [Example I-108], the “herbicidal effect SETVI” value in test [4] was found to be 100%. Further, the “herbicidal effect AMARE” value in test [5] amounted to 100%. Besides, in test [6], the “herbicidal effect VIOTR” value is listed as 100%.
With `CCO/C=C/c1cn(CC2CCCCC2)c(=O)c2snc(N)c12` [Example I-113], the “herbicidal effect SETVI” value in test [4] is given as 100%. In addition, the “herbicidal effect AMARE” value in test [5] was 100%. Also, the “herbicidal effect VIOTR” value in test [6] is listed as 100%.
As to `CC#Cc1cn(CC2CCCCC2)c(=O)c2snc(N)c12` [Example I-115], the “herbicidal effect SETVI” value in test [4] worked out at 100%. In addition, the “herbicidal effect AMARE” value in test [5] was 100%. Moreover, in test [6], the “herbicidal effect VIOTR” value is 100%.
Regarding `CCCc1cn(CC2CCCCC2)c(=O)c2snc(N)c12` [Example I-126], the “herbicidal effect SETVI” value in test [4] came to 80%. Further, the “herbicidal effect AMARE” value in test [5] is 100%. The “herbicidal effect VIOTR” value in test [6] amounted to 100%.
As to `Cc1ccc(-c2cn(CC3CCCCC3)c(=O)c3snc(N)c23)o1` [Example I-132], in test [4], the “herbicidal effect SETVI” value came out at 100%. Besides, the “herbicidal effect AMARE” value in test [5] worked out at 80%. Also, in test [6], the “herbicidal effect VIOTR” value was found to be 90%.
For the compound `C=C(OCC)c1cn(CC2CCCCC2)c(=O)c2snc(N)c12` [Example I-133], the “herbicidal effect SETVI” value in test [1] is 90%. Further, the “herbicidal effect AMARE” value in test [2] turned out to be 90%. Further, the “herbicidal effect VIOTR” value in test [3] stood at 100%.
For `CO/N=C(/C)c1cn(CC2CCCCC2)c(=O)c2snc(N)c12` [Example I-134], in test [4], the “herbicidal effect SETVI” value was found to be 80%. Besides, the “herbicidal effect AMARE” value in test [5] is 100%. For the same compound, the “herbicidal effect VIOTR” value in test [6] stood at 100%.
On to `CCO/N=C(/C)c1cn(CC2CCCCC2)c(=O)c2snc(N)c12` [Example I-141], for which the “herbicidal effect SETVI” value in test [4] is 100%. In test [5], the “herbicidal effect AMARE” value was determined as 100%. Besides, the “herbicidal effect VIOTR” value in test [6] was determined as 100%.
For the compound `CCO/N=C(/C)c1cn(CC2CCCCC2)c(=O)c2snc(N)c12` [Example I-142], the “herbicidal effect SETVI” value in test [4] amounted to 100%. The “herbicidal effect AMARE” value in test [5] was found to be 100%. For the same compound, the “herbicidal effect VIOTR” value in test [6] is given as 80%.
For `C=CCc1cn(CC2CCCCC2)c(=O)c2snc(N)c12` [Example I-143], the “herbicidal effect SETVI” value in test [4] is 100%. For the same compound, the “herbicidal effect AMARE” value in test [5] stood at 100%. Besides, the “herbicidal effect VIOTR” value in test [6] is 100%.
As for `Nc1nsc2c1C(O)CN(CC1CCCCC1)C2=O` (stereo not drawn) [Example I-144], the “herbicidal effect SETVI” value in test [1] was determined as 90%. Further, in test [2], the “herbicidal effect AMARE” value amounted to 100%. Further, the “herbicidal effect VIOTR” value in test [3] turned out to be 100%.
For the compound `CC(O)c1cn(CC2CCCCC2)c(=O)c2snc(N)c12` (stereo not drawn) [Example I-147], the “herbicidal effect SETVI” value in test [4] stood at 80%. Also, the “herbicidal effect AMARE” value in test [5] is on record as 100%. In test [6], the “herbicidal effect VIOTR” value was determined as 100%.
Take `CC(=O)c1cn(CC2CCCCC2)c(=O)c2c1C(N)=NS2(=O)=O` [Example I-158]: in test [1], the “herbicidal effect SETVI” value amounted to 80%. The “herbicidal effect AMARE” value in test [2] worked out at 90%. Moreover, the “herbicidal effect VIOTR” value in test [3] came to 100%.
The matching figures for `C/C(=N/OCC1CC1)c1cn(CC2CCCCC2)c(=O)c2snc(N)c12` [Example I-167]: 100%, 100% and 100%.
The matching figures for `Nc1nsc2c(=O)n(CC3CCCCC3)cc(C(=O)O)c12` [Example I-170]: 100%, 100% and 90%.

The record behind these values is patent publication US10842152B2, “Isothiazolo-based bicycles, processes for their preparation and their use as herbicides and/or plant growth regulators” (Bayer CropScience Aktiengesellschaft, priority 2017, dated 2020).
